Measurements: patent publication US20230116399A1, “Tumor Homing Statin Derivatives” (Da Zen Theranostics, Inc., priority 2019, published 2023)

Tests used:
[1] = tested on: 22Rv1 human prostate carcinoma tumors; experiment: Tumor volume of 22Rv1 tumors grown subcutaneously in mice; format: in vivo; details: 8 mg/kg, intravenously injected
Experimental: Example 1D: 22Rv1 human prostate carcinoma cells are cultured as described above, separated from the medium, resuspended in 50% phosphate buffered saline (PBS) and 50% BD Matrigel™ (BD Biosciences, CA), and then the re-suspended cells are injected and grown subcutaneously in mice. […] The decrease of the THSD in the tumors at 2 and 4 weeks, respectively, as determined by NIR signal, is less than about 30%.
Example 1E: 22Rv1 human prostate carcinoma cells are cultured, injected and grown subcutaneously in mice as described above in example 1D. Tumor volume is monitored by measuring the size by caliper and calculating volume as described in example 9 below. The mice are intravenously injected with the following: ALSD of formula FIId, “DZ2a”, compound 7, the corresponding unconjugated dye (here: DZ1), unconjugated Simvastatin, a statin drug (SIM), and docetaxel (DOC), a cancer drug, and a mixture of the ALSD with DOC. Each active was administered in an amount of 5 mg/kg for the ALSD, DZ1, and SIM, except, in case of DOC, 8 mg/kg. A slower rate of increased tumor volume indicates tumor suppressive activity.

[2] = tested on: L858R/T790M vs wild-type EGFR; details: inhibiting phosphorylation of EGFR; cited from earlier work
[3] = Stability of conjugates in mouse blood serum at 37° C. for 3 hours (LC-MS/MS); format: in vitro ADME; details: for amount of conjugate at 3 h (value at time 0 is 100) / degradation/release of the statin from the conjugate: mouse blood serum, 37° C., 3 h; for stability when exposed to serum: serum at body temperature for at least 3 hours
Experimental: Comparative example 1A-V: Synthesis of DZ1-SIM rapid release ester (RRE) and comparison of stability to an ELSD (here: DZ1-SIM). A rapid release ester (RRE) is synthesized as described below, linking DZ1 to Simvastatin (DZ1-SIM RRE or “DZ2c”, compound 8) and is tested in comparison to the ELSD (here: DZ1-SIM or “DZ2b”, compound 14, synthesized as described above). Both compounds are incubated in mouse blood serum at 37° C. for 3 hours, after which samples are taken and tested for degradation of the conjugates by testing for the unconjugated statin as described in example 6 herein-below (LC-MS/MS-025 with positive ion, ESI, MRM detection and HPLC). […] The value at time 0 for each of the samples is 100.

[4] = tested on: H446 (LC); experiment: MTT cell viability, H446; format: cell-based, human; details: Homo sapiens, NCI-H446, 48 h / 24 hours, relative IC50
Experimental: (§1) Cell culture: In the following examples, unless otherwise specified, all cell lines are purchased from American Type Culture Collection and cultured in American Type Culture Collection (ATCC)-recommended media, with fetal bovine serum (FBS) to a final concentration of 10% and 1×penicillin/streptomycin at 37° C. with 5% CO2 in a cell culture incubator, unless otherwise specified. Unless otherwise specified, culture is 2D. Where culture is 3D, low attachment plates are used, with the same media. C4-2B (parental cell line and drug-resistant cells derived therefrom) are cultured in RPMI-1640 with 10% FBS. MDVR cells (an Enzalutamide-resistant variety of C4-2B prostate cancer cells formed as described in Example 4 below) are cultured as indicated for the parental C4-2B cells. 22RV1 Prostate Cancer (PC) cells (ATCC® CRL-2505™, a human prostate carcinoma cell line of epithelial morphology) are cultured in RPMI-1640 with 10% FBS. A549 cells (ATCC® CCL-185™, a human lung carcinoma cell line of epithelial morphology) are cultured in F-12K medium with 10% FBS. A549/DDP cells (Cells were described in DOI: 10.3892/mmr.2014.2163 and in doi: 10.7150/jca.19426; cisplatin resistant cells may be established from exposing parental A549 cells to cisplatin for an extended time). MDR A549/cisplatin lung adenocarcinoma cell line, drug resistant) are cultured in F-12K medium with 10% FBS. H1975 cells (ATCC® CRL-5908™, a human adenocarcinoma non-small cell lung cancer cell line of epithelial morphology) are cultured in RPMI-1640 medium with 10% FBS; H1975 cells are a cell model for human lung cancer that is resistant to Gefitinib (an EGFR inhibitor drug used for treatment of certain breast, lung and other cancers). H1650 cells (ATCC® CRL-5883™, a adenocarcinoma/bronchoalveolar carcinoma lung cancer cell line of epithelial morphology) are cultured in RPMI-1640 medium with 10% FBS. […]

[5] = tested on: human cancer cell lines; experiment: MTT cell viability, summary over the cancer cell lines; format: cell-based; details: summary of the table of IC50, read-out: range of IC50 over the cancer cell lines
Experimental: Example 7: The experiment is performed by cell assay essentially as described above in example 4. […]
The cell lines are cultured according to the protocols as described above, then each of the cell lines are treated for 48 h either with an ELSD (here of formula FId, “DZ2b” or compound 14) or with an ALSD (here of formula FIId, “DZ2a” or compound 7). For each cell line, the IC50 is determined for each drug, i.e. the ELSD, the ALSD, and for the corresponding unconjugated statin (Simvastatin), in concentrations from 0.1-100 μM.
In the controls (not shown in the figures), the cells are exposed to DMSO (vehicle) for a final concentration that equals the highest concentration of the drug tested, to a maximum concentration less than 0.1% v/v. […] The absorbance density of the supernatant is read on a 96-well microplate reader at wavelength 595 nm.

[6] = tested on: A549 (LC); experiment: MTT cell viability, A549; format: cell-based, human; details: Homo sapiens, 48 h / 24 hours, relative IC50
Experimental: as §1

[7] = tested on: A549DDP (LC); experiment: MTT cell viability, A549DDP; format: cell-based, human; details: Homo sapiens, A549/DDP, 48 h / 24 hours, relative IC50
Experimental: as §1
(§2) […] For each cell line, the IC50 is determined for each drug, i.e. the ELSD, the ALSD, and for the corresponding unconjugated statin (Simvastatin), in concentrations from 0.1-100 μM. […]

[8] = tested on: H1650 (LC); experiment: MTT cell viability, H1650; format: cell-based, human; details: Homo sapiens, NCI-H1650, 48 h / 24 hours, relative IC50
Experimental: as §1

[9] = tested on: PC3 (PC); experiment: MTT cell viability, PC3; format: cell-based; details: Homo sapiens, 48 h / 24 hours, relative IC50
Experimental: as §1, with “FBS.” for “FBS. H1975 cells (ATCC® CRL-5908™, a human adenocarcinoma non-small cell lung cancer cell line of epithelial morphology) are cultured in RPMI-1640 medium with 10% FBS; H1975 cells are a cell model for human lung cancer that is resistant to Gefitinib (an EGFR inhibitor drug used for treatment of certain breast, lung and other cancers). H1650 cells (ATCC® CRL-5883™, a adenocarcinoma/bronchoalveolar carcinoma lung cancer cell line of epithelial morphology) are cultured in RPMI-1640 medium with 10% FBS.”

[10] = tested on: PC9 (LC); experiment: MTT cell viability, PC9; format: cell-based, human; details: Homo sapiens, 48 h / 24 hours, relative IC50
Experimental: as §1

[11] = tested on: 22RV1 (PC); experiment: MTT cell viability, 22RV1; format: cell-based, human
Experimental: as §1, §2

[12] = tested on: EZ-resistant C4-2B (PC); experiment: MTT cell viability, EZ-resistant C4-2B (MDVR); format: cell-based; details: Homo sapiens, 48 h / 24 hours, relative IC50
Experimental: as §1, with “FBS.” for “FBS. H1975 cells (ATCC® CRL-5908™, a human adenocarcinoma non-small cell lung cancer cell line of epithelial morphology) are cultured in RPMI-1640 medium with 10% FBS; H1975 cells are a cell model for human lung cancer that is resistant to Gefitinib (an EGFR inhibitor drug used for treatment of certain breast, lung and other cancers). H1650 cells (ATCC® CRL-5883™, a adenocarcinoma/bronchoalveolar carcinoma lung cancer cell line of epithelial morphology) are cultured in RPMI-1640 medium with 10% FBS.”

[13] = tested on: H1975 (LC); experiment: MTT cell viability, H1975; format: cell-based, human; details: Homo sapiens, NCI-H1975, 48 h / 24 hours, relative IC50
Experimental: as §1

[14] = tested on: RhoA/B in H-1975 human lung cancer tumors; experiment: RhoA/B membrane staining of tumor tissue, H-1975 mouse model; format: in vivo, mice; details: 20 mg/kg
Experimental: RhoA/RhoB membrane staining of tumor tissue of a H-1975 human lung cancer cell mouse model is performed as described below, and the tumor-bearing mice are treated with a THSD (here an ALSD of formula FIId, “DZ2a”, compound 7) in comparison to the corresponding unconjugated dye (“DZ1”) and to Gefinitib (an EGFR inhibitor drug used for treatment of certain breast, lung and other cancers).
H-1975 cells, a cell model for human lung cancer that is resistant to Gefitinib (an EGFR inhibitor drug used for treatment of certain breast, lung and other cancers) are cultured as described above and injected subcutaneously into mice to develop tumors. The mice and the tumors that are formed are systemically exposed to an ALSD (here of formula FIId, “DZ2a”, compound 7) by intravenous injection. The tumor-bearing mice are treated with either Gefitinib (20 mg/kg), or with an ALSD (here of formula FIId, “DZ2a”, compound 7, 5 mg/kg), an unconjugated dye of formula III (“DZ1”, 5 mg/kg) or a combination of the ALSD with Gefitinib.
For immunostaining of tumor tissue, the animals are sacrificed by prescribed and approved euthanasia techniques. Tumor tissue (maximum thickness 3 mm) is sliced, formalin fixated, embedded into paraffin blocks which are sectioned and processed into paraffin section slides. […]

In the case of `CC(=O)O[C@@]12CO[C@@H]1C[C@H](O)[C@@]1(C)C(=O)[C@H](O)C3=C(C)[C@@H](OC(=O)[C@H](O)[C@@H](NC(=O)OC(C)(C)C)c4ccccc4)C[C@@](O)([C@@H](OC(=O)c4ccccc4)[C@H]21)C3(C)C` [Docetaxel], the “tumor suppressive activity (tumor volume increase)” value [1] is reported as “no or very mild tumor suppressive activity” and the “tumor suppressive activity (tumor volume increase)” value ([1]; listed as DOC) is reported as “no significant tumor suppressive activity”.

In the case of `C=CC(=O)Nc1cc(Nc2nccc(-c3cn(C)c4ccccc34)n2)c(OC)cc1N(C)CCN(C)C` [AZD9291, Osimertinib], the “greater potency against L858R/T790M than wild-type EGFR” value [2] is given as 100-200 times.

With `CCC(C)(C)C(=O)O[C@H]1C[C@@H](C)C=C2C=C[C@H](C)[C@H](CC[C@@H]3C[C@@H](OC(=O)CCCCCN4/C(=C/C=C5\CCCC(/C=C/C6=[N+](CCCCS(=O)(=O)[O-])c7ccccc7C6(C)C)=C5Cl)C(C)(C)c5ccccc54)CC(=O)O3)[C@H]21` [DZ2c] the “amount of conjugate at 3 h (value at time 0 is 100)” value [3] was 10, the “degradation/release of the statin from the conjugate” value [3] was 90% and the “stability when exposed to serum” value [3] was “less stable and more easily degrades”.

Work on `CCC(C)(C)C(=O)O[C@H]1C[C@@H](C)C=C2C=C[C@H](C)[C@H](CC[C@@H](O)C[C@@H](O)CC(=O)OCCNC(=O)CCCCCN3/C(=C/C=C4\CCCC(/C=C/C5=[N+](CCCCS(=O)(=O)O)c6ccccc6C5(C)C)=C4Cl)C(C)(C)c4ccccc43)[C@H]21` [DZ2b] yielded an IC50 [4] of 3.4 µM, an IC50 [5] of 2 to 12 µM and an IC50 [6] of 5.4 µM. It also gave an IC50 [7] of 2.1 µM, an IC50 [8] of 11.8 µM and an IC50 [9] of 6 µM. For the same molecule, the IC50 [10] was 5.6 µM, the “amount of conjugate at 3 h (value at time 0 is 100)” value [3] was 100 and the “degradation/release of the statin from the conjugate” value [3] was “no degradation/release”. For the same molecule, the “stability when exposed to serum” value [3] was “stable and not subject to degradation”, the IC50 ([11]; 22RV1, treated for 48 h /, relative IC50, listed as ELSD) was 7.8 µM and the IC50 ([11]; Homo sapiens, 22Rv1, 22RV1, treated for 48 h /, relative IC50) was 10.8 µM. It also gave an IC50 [12] of 3.8 µM and an IC50 [13] of 6.4 µM.

With `COc1cc2ncnc(Nc3ccc(F)c(Cl)c3)c2cc1OCCCN1CCOCC1` [Gefitinib] the “RhoA/B staining of tumor cell membranes” value [14] was “staining persists in the membranes”.
